US20050031581A1, “Termite feeding stimulant and method for using same” (priority 2001, published 2005)

Legend:
termites [1] = experiment: Feeding on bait matrix with chitin synthesis inhibitor added; type: in vivo; conditions: added to the bait matrix of the bioassays
Experimental: Note that Chitin synthesis inhibitors, such as hexaflumuron, were added to the bait matrix described in the bioassays above resulting in less feeding on the bait matrix treated with hexaflumuron compared to its control. […] Accordingly, it is believed that adding sitosterol to such a bait matrix may provide a way to overcome the termites' aversion to hexaflumuron.

termites [2] = conditions: extended feeding tests, e.g. greater than 30 days; cited from earlier work
[3] = system: Coptotermes formosanus Shiraki; conditions: in vivo; cited from earlier work
Coptotermes lacteus = conditions: in vivo; cited from earlier work
termites [4] = conditions: limited by volatility of the compound; cited from earlier work
Mastotermes darviniensis = conditions: in vivo; cited from earlier work
[5] = Physical properties of sitosterol; type: physicochemical
Source text: (§1) Several aspects of sitosterol make it a promising compound for enhancing Coptotermes formosanus, and Reticulitermes tibialis control. […] Termite baits are most frequently placed in the soil where moisture conditions are a factor; i.e., soil having at least 20% moisture, and/or occasionally saturated with water. […] Sitosterol has little toxic risk, and it has been tested in humans as an alternative method to lower plasma cholesterol levels. Sitosterol is an economically rational additive to a termite bait system. For example, the cost of the sitosterol needed to treat one termite bait roll of the size and proportion of paper (e.g., 10 cm by 100 cm) is about one cent to reach the concentration of our highest tested dose (300 ugm).

Coptotermes formosanus = experiment: Cellulose TLC plate feeding bioassay; type: in vivo; conditions: 2.23, 7.45 and 22.34 ugm sitosterol/mg cellulose, FIG. 4
Experimental: (§2) Termite workers (100 total) were removed from their storage tubs and placed in a smaller plastic Rubbermaid® tub (having a volume of 414 ml) that contained soil (with a 20% by weight moisture). These termites were allowed to acclimate to their new surroundings for 24 hours before the feeding bioassay began. Solutions of sitosterol in acetone (of 1.0 ugm/ul, […], or 10 ugm/ul, respectively) were applied to three different cellulose squares with a Hamilton syringe (of 100 micro-liters (ul) capacity), wherein the squares were provided on a single thin-layer chromatography (TLC) glass plate. For the three cellulose squares, each single cellulose square (of 13.43 mg of cellulose) was evenly wetted with 30 ul of only one of the solutions. Thus, a dose of one of 30 ugm, 100 ugm or 300 ugm of sitosterol was applied, respectively, to a corresponding one of the cellulose squares. Accordingly, the concentrations on these three cellulose squares were, respectively, 2.23 ugm sitosterol/mg cellulose (equivalently, […] sitosterol to cellulose), 7.45 ugm sitosterol/milligram (mg) cellulose (equivalently, 0.745% sitosterol to cellulose), and 22.34 ugm sitosterol/mg cellulose (equivalently, 2.23% sitosterol to cellulose). Note that a fourth cellulose square was treated with 30 ul of acetone as a control. […]

Reticulitermes tibialis [6] = experiment: Paper feeding bioassay; type: in vivo; conditions: 0.60, 2.00 and 5.99 ugm sitosterol/mg paper bait substrate; 100 termites, FIG. 3
Experimental: The termites in the tub were allowed to acclimate to their new surroundings for 24 hours before the present feeding bioassay began. Each of three rectangular bait matrixes (each matrix being approximately 100 mg of bait substrate, the substrate being paper) was divided in two halves with a pencil line, each half having a 50.06 mg bait substrate upon which the termites were to feed. For each bait matrix, one half (the “experimental” half) was provided with a given sitosterol dose, and the other half was provided as a control, and accordingly had no sitosterol applied thereto. In particular, for each bait matrix, exactly one of three solutions of sitosterol in acetone (each solution having one of the concentrations: 1 ugm/ul, […], or 10 ugm/ul) was applied to the “experimental” half of the bait matrix with a Hamilton syringe (of 100 ul capacity), and only acetone was applied to the other (control) half as a control. More precisely, the experimental half of each bait matrix rectangle was evenly wetted with 30 ul of a different one of the solutions of sitosterol, thus applying on the experimental bait matrix half of each bait matrix a dose of only one of 30 ugm, 100 ugm or 300 ugm of sitosterol. The sitosterol concentrations tested were therefore 0.60, 2.00, and 5.99 ugm sitosterol/mg of bait substrate. […]

Reticulitermes tibialis [7] = experiment: Field test of sitosterol cellulose pellets in underground termite jar traps; type: in vivo; conditions: pellet 1% sitosterol and 99% cellulose, 15 jar traps in the field, FIG. 1
Experimental: Sitosterol was tested in the field as a feeding stimulant for Reticulitermes tibialis. Sitosterol (300 mg) was dissolved in 30 ml of acetone and added to 30 gm of cellulose powder (from Bio-Serv Inc., Frenchtown, N.J.), and the combination was dried overnight. A hydraulic press (providing 15,000 pounds per square inch force) was used to make hard pellets (wherein each pellet was approximately 3 gm, 2.5 cm diameter, 5 mm thickness, having 1% sitosterol and 99% cellulose). Control pellets of cellulose powder alone (3 gm) were made similarly.
The pellets were tested in underground termite traps made from Nalgene jars (having dimensions of approximately 10 cm diameter, 10 cm height) with 3 mm holes drilled at 3 cm intervals to allow termites to enter each jar. The jar traps were filled with soil (20% moisture). Two pellets were placed on the surface of the soil both within and at the top of each jar trap, one pellet containing cellulose (3 gm) plus sitosterol […] and the other pellet containing only cellulose (3 gm).
One of the jar traps containing a 1% sitosterol pellet and a cellulose control pellet was placed at the base of a fence post that was previously determined to be infested with termites. The traps were checked once a week for feeding. When termite feeding was apparent, both pellets were removed and weighed to determine the amount of each pellet that had been eaten. […]

Reticulitermes tibialis [8] = experiment: Cellulose TLC plate feeding bioassay; type: in vivo; conditions: every dose tested: 30, 100 and 300 ugm per cellulose square; 100 termites, up to 7 days, FIG. 2
Experimental: Such behavioral feeding bioassays were conducted using the following protocol.
as §2

termites [9] = experiment: Toxic effects of sitosterol to termites; conditions: in vivo
Source text: as §1

termites [10] = conditions: ambient atmosphere; cited from earlier work

O=C(NC(=O)c1c(F)cccc1F)Nc1cc(Cl)c(OC(F)(F)C(F)F)c(Cl)c1 [hexaflumuron]
feeding on treated bait matrix compared to its control (termites [1]): less feeding

N[C@H](CC(=O)O)C(=O)O [D-aspartic acid]
toxicity to termites (termites [2]): has shown toxicity to termites | feeding compared with a water control [3]: fed upon more than a water control

Oc1ccc(O)cc1 [Hydroquinone]
feeding stimulation (Coptotermes lacteus): stimulated feeding | duration of phagostimulatory effects (termites [4]): one month | feeding stimulation (Mastotermes darviniensis): stimulated feeding

CC[C@H](CC[C@@H](C)[C@H]1CC[C@H]2[C@@H]3CC=C4C[C@@H](O)CC[C@]4(C)[C@H]3CC[C@]12C)C(C)C [sitosterol]
stability and volatility [5]: stable, nonvolatile | hydrophobicity ([5]; soil moisture/water): hydrophobic compound which resists being washed off | feeding on cellulose squares having sitosterol versus control square (Coptotermes formosanus): ate substantially more | area of bait matrix half consumed versus control side (Reticulitermes tibialis [6]): consumed substantially more than the control side | amount of pellet eaten by the termites versus cellulose control pellet (Reticulitermes tibialis [7]): more than twice as much | feeding on cellulose treated with sitosterol versus control square (Reticulitermes tibialis [8]): fed significantly more | toxic effects to termites (termites [9]): no toxic effects

N[C@@H](CCC(=O)O)C(=O)O [L-glutamic acid]
feeding compared with a water control [3]: fed upon more than a water control

O=C=O [CO2, carbon dioxide]
CO2 concentration attractive to termites (termites [10]): at least 0.2 % by volume
